# Measurements from US20190321431A1, “PREPARATION AND APPLICATION OF Syzygium zeylanicum L. EXTRACT” (Tamkang University, priority 2018, published 2019).
# Key:
# [1] = target: S. cerevisiae alpha-glucosidase (Saccharomyces cerevisiae, UniProt P53341); type: biochemical
# Method: (§1) The test steps of this example are as follows. Firstly, the Syzygium zeylanicum L. extract was mixed a buffer (potassium phosphate buffer) with 1:9 volume to produce a Syzygium zeylanicum L. extract solution. The Syzygium zeylanicum L. extract solution and alpha-glucosidase (enzyme) were mixed into the buffer at a volume ratio of 1:1. In this example, 15 μl extract solution and the enzyme were separately mixed into 100 μl buffer at 37° C. for 20 minutes. Then, 50 μl matrix p-nitrophenyl glucopyranoside (pNPG) was added at 37° C. for 40 minutes; then 100 μl, 1 mol/L of Na2CO3 was added to stop the reaction. Finally, the absorbance of OD 410 nm was measured, and calculated the inhibition activity of alpha-glucosidase. The above experimental steps was the subsequent enzyme activity test method of the present invention, and only different conditions, such as extraction solvent, reaction temperature or pH were changed.
# (§2) The enzyme activity inhibition test of Example 2 was used in this example. […] The enzymes were S. cerevisiae alpha-glucosidase, rat alpha-glucosidase, B. stearothermophilus alpha-glucoside), porcine pancreatic alpha-amylase, B. subtilis alpha-amylase, and human saliva alpha-amylase.
# [2] = target: T1, Porcine pancreatic alpha-amylase (Sus scrofa, UniProt P00690); test: Enzyme activity inhibition test, porcine pancreatic alpha-amylase; type: biochemical
# T1 sequence (P00690 16-511): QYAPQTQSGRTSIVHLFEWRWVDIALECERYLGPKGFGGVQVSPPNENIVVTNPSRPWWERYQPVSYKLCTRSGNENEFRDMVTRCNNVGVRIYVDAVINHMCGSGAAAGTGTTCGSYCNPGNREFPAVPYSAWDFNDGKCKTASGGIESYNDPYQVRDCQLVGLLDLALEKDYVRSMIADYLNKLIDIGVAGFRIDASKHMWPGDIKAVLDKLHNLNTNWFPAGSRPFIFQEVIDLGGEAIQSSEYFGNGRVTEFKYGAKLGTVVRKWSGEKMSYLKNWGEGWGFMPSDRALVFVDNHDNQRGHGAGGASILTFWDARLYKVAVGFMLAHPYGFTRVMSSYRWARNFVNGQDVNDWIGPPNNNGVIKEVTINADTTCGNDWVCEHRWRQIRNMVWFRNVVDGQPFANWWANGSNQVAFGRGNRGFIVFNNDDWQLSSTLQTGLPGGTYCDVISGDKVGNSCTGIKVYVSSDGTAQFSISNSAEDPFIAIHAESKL
# Method: as §1, §2
# S. cerevisiae alpha-glucosidase, sequence (P53341 whole entry): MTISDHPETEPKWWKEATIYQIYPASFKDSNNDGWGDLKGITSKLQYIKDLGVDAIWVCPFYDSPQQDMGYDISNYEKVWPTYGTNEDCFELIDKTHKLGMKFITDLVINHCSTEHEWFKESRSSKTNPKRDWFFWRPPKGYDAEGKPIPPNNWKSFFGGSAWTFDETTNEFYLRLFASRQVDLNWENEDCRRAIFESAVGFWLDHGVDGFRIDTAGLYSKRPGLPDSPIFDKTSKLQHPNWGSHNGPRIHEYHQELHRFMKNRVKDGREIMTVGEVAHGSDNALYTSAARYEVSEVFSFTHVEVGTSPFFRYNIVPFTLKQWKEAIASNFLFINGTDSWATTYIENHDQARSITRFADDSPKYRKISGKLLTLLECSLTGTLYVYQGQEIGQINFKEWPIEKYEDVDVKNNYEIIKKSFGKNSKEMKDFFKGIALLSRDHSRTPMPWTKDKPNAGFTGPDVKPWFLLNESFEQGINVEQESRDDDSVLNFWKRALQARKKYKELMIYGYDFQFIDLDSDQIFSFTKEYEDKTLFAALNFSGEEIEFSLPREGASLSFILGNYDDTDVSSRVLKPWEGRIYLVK
smiles,measurement,setting,value
C[C@H]1O[C@H](O[C@H]2[C@H](O)[C@@H](O)[C@@H](O[C@H]3[C@H](O)[C@@H](O)C(O)O[C@@H]3CO)O[C@@H]2CO)[C@H](O)[C@@H](O)[C@@H]1N[C@H]1C=C(CO)[C@@H](O)[C@H](O)[C@H]1O (some centres unmarked) [Acarbose],Maximum Inhibitory Activity,[1],64 ± 2.3%
same,Maximum Inhibitory Activity,[2],91 ± 2.5%
